Test results: patent US5153352A, “Process for preparation of intermediates of carbocyclic nucleoside analogs” (priority 1990, dated 1992)
Converted amounts (≈) assume the structure as drawn. “And” between values parts separate entries of the source, which are not always exact repeats. Equal entries are not always repeated. Structures can show the parent of a compound that is named as a salt.

Columns and labels:
[1] = tested on: Herpes simplex type 1 (HSV-1) strain E-377; test: CPE-inhibition assay, HSV-1 strain E-377 in Vero cells; details: for TI (Therapeutic Index, MTC/ID50) / VR (Virus Rating): HSV-1 (E-377), Vero; for VR (Virus Rating): >1.0 definite, 0.5-0.9 marginal to moderate, <0.5 no significant activity; for EC50: Human alphaherpesvirus 1, Vero, read-out: ID50 (minimum drug concentration that inhibited the CPE by 50%), HSV-1 (E-377), Vero
[2] = drug cytotoxicity in Vero cells (CPE-inhibition assay); details: monkey, vero cells, MTC (minimum drug concentration causing any cytotoxicity), Vero
[3] = tested on: Human Immunodeficiency Virus (HIV-1); test: anti-HIV-1 protection of ATH8 cells (method of Mitsuya and Broder); format: cell-based; details: Human immunodeficiency virus 1, ATH-8, HIV-1, ATH8 cells, read-out: Protective Effect
Excerpt: The method of Mitsuya and Broder (AIDS: Modern Concepts and Therapeutic Challenges; Broder, S. ED.; Marcel Dekker, Inc.; New York, 1987; Chapter 18) was used to determine the in vitro anti-HIV-1 and anti-HIV-2 activity in ATH8 cells of some compounds of the invention. The results of the test are expressed as the percentage of ATH8 cells that were protected from the cytopathogenic effects of HIV at various concentrations of the compound of the invention.

[4] = cytotoxicity in ATH8 cells (method of Mitsuya and Broder); format: cell-based; details: human, HIV-1 experiment
Excerpt: The method of Mitsuya and Broder (AIDS: Modern Concepts and Therapeutic Challenges; Broder, S. ED.; Marcel Dekker, Inc.; New York, 1987; Chapter 18) was used to determine the in vitro anti-HIV-1 and anti-HIV-2 activity in ATH8 cells of some compounds of the invention. […]

[5] = tested on: Herpes simplex type 2 (HSV-2) strain MS; test: CPE-inhibition assay, HSV-2 strain MS in Vero cells; details: for TI (Therapeutic Index, MTC/ID50) / VR (Virus Rating): HSV-2 (MS), Vero; for VR (Virus Rating): >1.0 definite, 0.5-0.9 marginal to moderate, <0.5 no significant activity; for EC50: Human alphaherpesvirus 2, Vero, read-out: ID50 (minimum drug concentration that inhibited the CPE by 50%), HSV-2 (MS), Vero
[6] = tested on: Human Cytomegalovirus (HCMV); test: HCMV virus yield reduction assay in MRC5 cells; format: cell-based, Human cytomegalovirus (strain AD169)
Protocol: (§1) Human diploid embryonic lung (MRC5) cells were grown in 35 mm wells of 6-well tissue culture plates. Subconfluent cell monolayers were rinsed with phosphate buffered saline (PBS) and were exposed to 0.5 ml/well of HCMV (strain AD169) suspension for 1.5 hours at 37° C. The virus suspension was diluted in MEM+2% fetal bovine serum (FBS) to yield a multiplicity of infection (MOI) of approximately 0.1 plaque forming units (PFU)/cell. Following the virus adsorption period, the inocula were removed and infected cell layers were rinsed with PBS. Aliquots (2.0 ml) of each test drug concentration (dissolved in MEM supplemented with 2% FBS) were dispensed into triplicate cell cultures: two virus infected cultures and one uninfected cytotoxicity control culture (exposed to medium without virus for 1.5 hours). Untreated virus infected control cultures and untreated, uninfected cell control cultures were fed with medium alone.
(§2) All cell culture fluids were replaced with fresh drug and medium 48 hours postinfection (p.i.).
On Day 6 p.i., the cell layers were examined microscopically for cytopathogenic effect (CPE) and drug cytotoxicity. The test and virus control cultures were then harvested by subjecting the cell layers to one cycle of freeze-thawing.
The harvested test and virus control samples were thawed and the infectious virus yield was determined by plaque assay in MRC5 cells grown in 12-well cluster plates. Inhibition of HCMV replication by each test compound was determined by comparing the progeny virus yields in the drug-treated cultures with the progeny virus yield in the untreated, virus infected control cultures.

[7] = MTT cytotoxicity assay in MRC5 cells; format: cell-based; details: human
Protocol: as §1, §2
Drug cytotoxicity was determined quantitatively by a method based on the reduction of the tetrazolium salt, 3-(4,5-dimethyl-thiazol-2-yl)-2,5-diphenyl tetrazolium bromide (MTT) by mitochondrial enzymes of viable host cells to MTT formazan (T. Mosmann, 1983). Drug cytotoxicity controls and cell controls were treated with MTT (dissolved in culture medium) followed by 20% SDS (in 0.02 N HCl) to dissolve the crystals of MTT formazan. The blue color of the MTT formazan was measured spectrophotometrically at 570 nm. Drug cytotoxicity was determined by comparing the absorbance (O.D.) of each drug cytotoxicity control with the mean O.D. of the cell control cultures and expressed as percent of control.

A549: Lung carcinoma = test: cytotoxic activity against cultured tumor cells, A549; format: cell-based; details: Homo sapiens, 72 h; A549, 3 days, MTT
[8] = tested on: HCT8: Adenocarcinoma, ileocecal; test: cytotoxic activity against cultured tumor cells, HCT-8; format: cell-based; details: Homo sapiens, 72 h; HCT-8, 3 days, MTT
[9] = tested on: P388D1: Lymphocytic Leukemia; test: cytotoxic activity against cultured tumor cells, P388-D1; format: cell-based; details: Mus musculus, P388D1, 72 h; P388-D1, 3 days, MTT
HSV-1(E-377) = test: plaque reduction, HSV-1(E-377) in Vero cells; format: cell-based, Herpes simplex virus type 1; details: Human alphaherpesvirus 1, plaque reduction 50%, read-out: MIC50
Protocol: (§3) After the adsorption period, the infected cell monolayers were treated in duplicate with serial dilutions of the test compound. Duplicate cell controls containing medium alone and virus controls containing medium and virus were run simultaneously with the test compound. […] Plaques visible to the unaided eye were counted and the mean number of plaques in the duplicate wells for each compound concentration tested and for the untreated, virus infected controls were determined.

HSV-1(123) = test: plaque reduction, HSV-1(123) in Vero cells; format: cell-based, Herpes simplex virus type 1; details: Human alphaherpesvirus 1, plaque reduction 50%, read-out: MIC50
Protocol: as §3

HSV-2 = test: plaque reduction, HSV-2 in Vero cells; format: cell-based, Herpes simplex virus type 2; details: Human alphaherpesvirus 2; HSV-2, Vero, plaque reduction 50%; read-out: MIC50
Protocol: as §3

Vero cells = test: drug cytotoxicity in Vero cells (CPE-inhibition assay); details: Vero

Nc1ncc2ncn(C3CC(CO)C3CO)c2n1 (centres unmarked) [Example 7, 3-(2'-Amino-9'H-purin-9'-yl)-1,2-bis(hydroxymethyl)cyclobutane]
TI (Therapeutic Index, MTC/ID50) [1]: 1.2
VR (Virus Rating) [1]: 0.55
EC50 [1]: 271 µg/mL (≈ 1090 µM)
MCC ([2]; HSV-1 (E-377) experiment): 320 µg/mL

Nc1nc(N)c2ncn(C3CC(CO)C3CO)c2n1 (centres unmarked) [Example 6, 3-(2',6'-Diamino 9'H-purin-9'-yl)-1,2-bis(hydroxymethyl)cyclobutane]
inhibition at 1 µM ([3]; 1 uM): 21%
inhibition at 10 µM ([3]; 10 uM): 48%
inhibition at 100 µM ([3]; 100 uM): 46%
inhibition at 500 µM ([3]; 500 uM): 57%
cytotoxicity at 1 µM ([4]; 1 uM): 0%
cytotoxicity at 10 µM ([4]; 10 uM): 4%
cytotoxicity at 100 µM ([4]; 100 uM): 32%
cytotoxicity at 500 µM ([4]; 500 uM): 38%
TI (Therapeutic Index, MTC/ID50) [5]: 4.5
VR (Virus Rating) [5]: 1.6
EC50 [5]: 71.8 µg/mL (≈ 272 µM)
TI (Therapeutic Index, MTC/ID50) [1]: 10.1
VR (Virus Rating) [1]: 2.4
EC50 [1]: 31.7 µg/mL (≈ 120 µM)
MCC ([2]; HSV-1 (E-377) experiment): 320 µg/mL
MCC ([2]; HSV-2 (MS) experiment): 320 µg/mL

OCC1CC(n2ccc3c(Cl)ncnc32)C1CO (centres unmarked) [Example 67B, 4-Chloro-7-(2',3'-bis(hydroxymethyl)cyclobutyl)-7H-pyrrolo[2,3-d]pyrimidine]
HCMV yield ([6]; 3.2 ug/ml): 4.9 log10 PFU/ml
HCMV yield ([6]; 10 ug/ml): 4.0 log10 PFU/ml
HCMV yield ([6]; 32 ug/ml): 3.1 log10 PFU/ml
log reduction at 3.2 µg/mL ([6]; Human betaherpesvirus 5, 144 h, 3.2 ug/ml): 0.4
log reduction at 10 µg/mL ([6]; Human betaherpesvirus 5, 144 h, 10 ug/ml): 1.3
log reduction at 32 µg/mL ([6]; Human betaherpesvirus 5, 144 h, 32 ug/ml): 2.2
viability ([7]; 10 ug/ml): 86%
viability ([7]; 32 ug/ml): 68%
IC50 (A549: Lung carcinoma): 18.8 µg/mL (≈ 70.2 µM)
IC50 [8]: 0.63 µg/mL (≈ 2.35 µM)
IC50 [9]: 4.9 µg/mL (≈ 18.3 µM)

Nc1nc2c(nc(Br)n2C2CC(CO)C2CO)c(=O)[nH]1 (centres unmarked) [Example 23]
VR (Virus Rating) [5]: 0.7
TI (Therapeutic Index, MTC/ID50) [1]: 3.2
VR (Virus Rating) [1]: 1.7
EC50 [1]: 100 µg/mL (≈ 291 µM)
MCC ([2]; HSV-1 (E-377) experiment): > 320 µg/mL
MCC ([2]; HSV-2 (MS) experiment): > 320 µg/mL

CC(=O)OCC1CC(n2cnc3c(=O)[nH]c(N)nc32)C1COC(C)=O (centres unmarked) [Example 20, 9-(2,'3,'-Bis(acetoxymethyl)cyclobutyl)guanine]
TI (Therapeutic Index, MTC/ID50) [5]: 6.4
VR (Virus Rating) [5]: 1.9
EC50 [5]: 15.7 µg/mL (≈ 44.9 µM)
TI (Therapeutic Index, MTC/ID50) [1]: 8.2
VR (Virus Rating) [1]: 2.2
EC50 [1]: 12.1 µg/mL (≈ 34.6 µM)
MCC ([2]; HSV-1 (E-377) experiment): 100 µg/mL
MCC ([2]; HSV-2 (MS) experiment): 100 µg/mL

Nc1ccn(C2CC(CO)C2CO)c(=O)n1 (centres unmarked) [Example 3, 1-(2',3'-Bis(hydroxymethyl)cyclobutyl)cytosine]
TI (Therapeutic Index, MTC/ID50) [5]: 6.34
VR (Virus Rating) [5]: 2.0
EC50 [5]: 50.5 µg/mL (≈ 224 µM)
TI (Therapeutic Index, MTC/ID50) [1]: 31.8
VR (Virus Rating) [1]: 3.6
EC50 [1]: 10.1 µg/mL (≈ 44.7 µM)
MCC ([2]; HSV-1 (E-377) experiment): 320 µg/mL
MCC ([2]; HSV-2 (MS) experiment): 320 µg/mL

OCC1CC(n2cnc3c(Cl)ncnc32)C1 (centres unmarked) [Example 8E, 3-(6'-chloro-9'H-purin-9'-yl)cyclobutanemethanol]
TI (Therapeutic Index, MTC/ID50) [5]: 1.8
VR (Virus Rating) [5]: 1.35
EC50 [5]: 54.7 µg/mL (≈ 229 µM)
VR (Virus Rating) [1]: 0.9
MCC ([2]; HSV-1 (E-377) experiment): 320 µg/mL
MCC ([2]; HSV-2 (MS) experiment): 100 µg/mL

NCC1CC(n2cnc3c(Cl)ncnc32)C1 (centres unmarked) [Example 21, 3-(6'-Chloro-9'H-purin-9'-yl)-aminomethylcyclobutane hydrochloride]
TI (Therapeutic Index, MTC/ID50) [5]: 4.3
VR (Virus Rating) [5]: 1.2
EC50 [5]: 75 µg/mL
TI (Therapeutic Index, MTC/ID50) [1]: 3.6
VR (Virus Rating) [1]: 1.0
EC50 [1]: 88 µg/mL
MCC ([2]; HSV-1 (E-377) experiment): 320 µg/mL
MCC ([2]; HSV-2 (MS) experiment): 320 µg/mL

Nc1nc2c(ncn2C2CC(CO)C2O)c(=O)[nH]1 (centres unmarked) [Example 42P, 9-(2'-hydroxy-3'-hydroxymethyl-1'-cyclobutyl)guanine]
EC50 (HSV-1(E-377)): 1 µg/mL (≈ 3.98 µM)
EC50 (HSV-1(123)): 3 µg/mL (≈ 11.9 µM)
EC50 (HSV-2): 1 µg/mL (≈ 3.98 µM)

Nc1ncnc2c1c(Br)cn2C1CC(CO)C1CO (centres unmarked) [Example 67F, 4-Amino-9-bromo-7-(2',3'-bis(hydroxymethyl)cyclobutyl)-7H-pyrrolo[2,3-d]pyrimidine]
IC50 (A549: Lung carcinoma): 3.1 µg/mL (≈ 9.47 µM)
IC50 [8]: 5.9 µg/mL (≈ 18 µM)
IC50 [9]: 5.2 µg/mL (≈ 15.9 µM)

OCC1CC(n2cc(Br)c3c(Cl)ncnc32)C1CO (centres unmarked) [Example 67C]
IC50 (A549: Lung carcinoma): 18.4 µg/mL (≈ 53.1 µM)
IC50 [8]: 4.3 µg/mL (≈ 12.4 µM)
IC50 [9]: 16.4 µg/mL (≈ 47.3 µM)
TI (Therapeutic Index, MTC/ID50) [5]: 2.1
VR (Virus Rating) [5]: 0.9
EC50 [5]: 14.9 µg/mL (≈ 43 µM)
TI (Therapeutic Index, MTC/ID50) [1]: 2.9
VR (Virus Rating) [1]: 1.2
EC50 [1]: 11.1 µg/mL (≈ 32 µM)
MCC ([2]; HSV-1 (E-377) experiment): 32 µg/mL
MCC ([2]; HSV-2 (MS) experiment): 32 µg/mL

Nc1nc(Cl)c2ncn(C3CC(CO)C3CO)c2n1 (centres unmarked) [Example 1H, 3-(2'-Amino-6'-chloro-9'H-purin-9'-yl)-1,2-bis(hydroxymethyl)cyclobutane]
TI (Therapeutic Index, MTC/ID50) ([5]; listed as 1.5H): 1.8 and 1.5
EC50 [5]: 179 µg/mL (≈ 631 µM)
TI (Therapeutic Index, MTC/ID50) ([1]; listed as 1.5H): 3.9 and 3.6
EC50 [1]: 83 µg/mL (≈ 293 µM)
MCC ([2]; HSV-1 (E-377) experiment): 320 µg/mL
MCC ([2]; HSV-2 (MS) experiment): 320 µg/mL
MTC (minimum drug concentration causing any cytotoxicity) (Vero cells; HSV-1 (E-377) experiment): 320 µg/mL
MTC (minimum drug concentration causing any cytotoxicity) (Vero cells; HSV-2 (MS) experiment): 320 µg/mL
